# Measured values: patent US20240099298A1, “BIOINSECTICIDAL COMPOSITIONS CONTAINING MONOTERPENES AND METHODS OF USE THEREOF” (priority 2017, published 2024)
# Counter-ions that a name gives are not always drawn. Like-named read-outs stand apart in the source and are kept apart here. Marks after values point to notes of the source that are not given here.
# What was measured:
# [1] = tested on: A. japonicus (parasitic wasp); assay: Median lethal time (LT50) test, parasitic wasp (natural enemy); conditions: non-target parasitic wasp
# Method: (§1) Insect Egg Parasitic Wasp (Natural Enemy). […] Both species were purchased from a commercial source. One- to two-day-old adults (after eclosion) were used for fumigation tests.
# Median Lethal Time (LT50) and Median Knockdown Concentration (KC50) Tests. Five species of adult insects or natural enemies were tested for LT50 values including melon fly (B. cucuribitae), red flour beetle (T. castaneum), Nitidulidae beetle (H. picinus), parasitic wasp (A. japonicus) and housefly (M. domestica). For each treatment and control, 20 insects at the developmental stages described above were placed individually without food in a 1-L wide-mouth glass bottle (height 19.5 cm, bottom diameter 10.5 cm, mouth i.d. 5.5 cm) containing pieces of tissue paper. […] Five different concentrations of the test chemicals were placed on pieces of cellulose-based qualitative filter paper. Each of the filter papers was placed in a bottle to have 5 appropriate concentrations in serial dilutions. DDVP was the positive control, and no chemical treatments were the negative control. All treatments and controls were in triplicate. Mortality was observed periodically in a 10-30 minute interval for 2 days or until all insects died. The death was defined as no movement when the insects were touched.
# M. domestica (housefly) = assay: Median lethal time (LT50) test, housefly; assay type: in vivo, Musca domestica
# Description: (§2) All treatments and controls were in triplicate.
# (§3) Toxicity of Monoterpenes as Fumigants. […] Therefore, to determine how fast the monoterpenes act as fumigants, it was necessary to determine their LT50 values for the target organisms.
# [2] = tested on: B. cucuribitae (melon fly); assay: Median lethal time (LT50) test, melon fly; assay type: in vivo, Bactrocera cucuribitae
# Description: as §2, §3
# [3] = tested on: Megalurothrips usitatus (flower Thrips); conditions: for mortality: in vivo; for activity against flower Thrips in preliminary screening: adult M. usitatus, 24 hours of fumigation in 1-L flasks
# [4] = tested on: T. castaneum (red flour beetle); assay: Median lethal time (LT50) test, red flour beetle; assay type: in vivo, Tribolium castaneum
# Description: as §2, §3
# [5] = tested on: H. picinus (Nitidulid beetle); assay: Median lethal time (LT50) test, Nitidulid beetle; assay type: in vivo, Haptoncus picinus
# Description: as §2, §3
# [6] = cited from earlier work
# adult T. palmi = conditions: cited from earlier work
# Aedes aegypti (mosquito) = assay: Median knockdown concentration (KC50) test, mosquito; assay type: in vivo
# Description: as §2
# (§4) Knockdown Activity of Monoterpenes.
# [7] = tested on: T. chilonis (parasitic wasp); conditions: non-target parasitic wasp, mortality after 15 minutes of exposure
# Description: as §1
# (§5) Median Lethal Concentration Tests. […] The species tested included Thrips (M. usitatus), spider mite (T. cinnabarinus), melon fly (B. cucuribitae), cockroach (B. lateralis), housefly (M. domestica), mosquito (A. aegypti), parasitic wasp (T. chilonis) and fruit fly (Drosophila melanogaster). After being exposed to the test chemicals for one hour, adult Thrips, spider mites, and roaches were transferred to another flask. In addition to fresh water, adult Thrips, spider mites, and roaches were then respectively fed with cowpea, fresh blade of eggplant, and peanut oil via filter. […] Mortality of melon fly was observed after three hours of exposure.
# [8] = tested on: Megalurothrips usitatus (Bagrall) (thrips); assay: Median lethal concentration fumigation test, thrips; conditions: adult thrips, exposed one hour, mortality observed in 24 hours
# Description: as §5
# [9] = tested on: Bactrocera cucuribitae (Coquillett) (melon fly)
# Description: as §5
# [10] = tested on: Tetranychus cinnabarinus (Boisduval) (spider mites)
# Description: as §5
# [11] = tested on: Musca domestica (Linnaeus) (housefly)
# Description: as §5
# [12] = tested on: Aedes aegypti (Linnaeus) (mosquito)
# Description: as §5
# [13] = tested on: Blatta lateralis (Walker) (cockroach)
# Description: as §5
# [14] = tested on: Musca domestica (housefly); assay: Median knockdown concentration (KC50) test, housefly; assay type: in vivo; conditions: for KC50 (fiducial limits): Musca domestica; for time within which the insects responded: houseflies
# Description: as §2, §4
# flower Thrips = assay: Field test in cowpea fields, thrips; assay type: in vivo
# Method: (§6) Field Tests. […] Therefore, it was determined whether this compound could control Thrips in the field. Linalool was in 20-, 10- and 5.0-fold dilutions with edible peanut oil. The positive control was spinetoram (Dow AgroSciences) in 3000-fold dilution.
# (§7) The field experimental plots were 15 m^2 in size, in triplicate. A designated sprayer (Dia spray No. 3530, Japan Furlpla Co., Japan) was used to spray the solvent only negative control in this experiment. Grub density was calculated at every plot prior to application. During the experiments, the field was also infested with leafhoppers, so that the control efficacy of leafhoppers was also assessed. The number of adult Thrips and leafhoppers was assessed in the treatment and control areas at 1, 3, 5, 7, 14 and 21 days after application. The decline of the adult Thrips and leafhoppers was calculated to assess the control efficacy of linalool.
# Field Applications. To assess the use of monoterpenes in the field, linalool was tested for control of flower Thrips in cowpea fields. […] At 1 and 3 days after treatment, control efficacy respectively reached 98% and 100% for the 10-fold dilution (Table 15). By comparison, the positive control, a 3000-fold dilution of spinetoram, reached 70% and 94% at 1 and 3 days after treatment, respectively (Table 17).
# [15] = tested on: leafhoppers, Cicadella viridi linne; assay: Field test, leafhoppers; assay type: in vivo; conditions: Leafhopper
# Method: as §6, §7
# A 10-fold dilution of linalool was also the most efficacious application, compared to 5- and 20-fold dilutions, in controlling leafhoppers, Cicadella viridi linne (Hemiptera: Cicadellidae). At 7 and 14 days after treatment, the control efficacy of the 10-fold dilution of linalool reached 96% and 98%, respectively.
# [16] = adult housefly, exposed one hour, mortality in 24 hours
# [17] = adult mosquito, exposed 30 minutes, mortality in 24 hours
# [18] = cockroach second instar nymphs, exposed one hour
compound,measurement,setting,value
CC(C)=O [Acetone],LT50 (fiducial limits) against A. japonicus,[1],>48^a hour
same,LT50 (fiducial limits),M. domestica (housefly),>48^a ^ hour
same,LT50 (fiducial limits),[2],>48^a ^ hour
same,mortality,[3],No mortality
same,LT50 (fiducial limits),[4],>48^a ^ hour
same,LT50 (fiducial limits),[5],>48^a ^ hour
C=CC(=C)CCC=C(C)C [Myrcene],activity against flower Thrips in preliminary screening,[3],not active
same,Vp (Pa)/T (° C.),[6]; T 25 °C,278.64/25 Pa
C=C(C)[C@H]1CC=C(C)CC1 [(+)-Limonene],activity against flower Thrips in preliminary screening,[3],not active
same,Vp (Pa)/T (° C.),[6]; T 25 °C,263.97/25 Pa
C=C(C)[C@@H]1CC=C(C)CC1 [(−)-Limonene],activity against flower Thrips in preliminary screening,[3],not active
same,Vp (Pa)/T (° C.),[6]; T 25 °C,206.65/25 Pa
"CCOC=O [ethyl formate, reference compound]",LC50,"[3]; flower Thrips, positive fumigant control",greater than 9.2 μg/cm^3
"CC12CCC(CC1=O)C2(C)C (racemic) [(±)-camphor, reference compound]","LC50, fumigation toxicity",adult T. palmi,9.7 µg/mL
C=CCc1ccc(OC)cc1 [Estragole],LT50 (fiducial limits) against A. japonicus,[1],1.19 (1.02-1.37) hour
same,KC50 (fiducial limits),Aedes aegypti (mosquito); 10 Minutes,>8.1 µg/mL
same,KC50 (fiducial limits),Aedes aegypti (mosquito); 20 Minutes,2.32 µg/mL
same,KC50 (fiducial limits),Aedes aegypti (mosquito); 30 Minutes,>8.1 µg/mL
same,LC50 (fiducial limits) against T. chilonis,[7],1.64 µg/mL
same,LC90 (fiducial limits) against T. chilonis,[7],34.9 µg/mL
same,LC50 (fiducial limits),[8],0.24 µg/mL
same,LC90 (fiducial limits),[8],1.29 µg/mL
same,LC50 (fiducial limits),[8]; listed as estragole,0.241 µg/mL
same,LC50 (fiducial limits),[9]; in vivo,483 µg/mL
same,LC90 (fiducial limits),[9]; melon fly,953 µg/mL
same,LC50 (fiducial limits),[10]; in vivo,3.28 µg/mL
same,LC90 (fiducial limits),"[10]; spider mites, exposed one hour",21.0 µg/mL
same,LC90 (fiducial limits),[11]; [16],15.3 µg/mL
same,LC50 (fiducial limits),[11]; in vivo,5.89 µg/mL
same,LC90 (fiducial limits),[12]; [17],0.91 µg/mL
same,LC50 (fiducial limits),[12]; in vivo,0.25 µg/mL
same,LC90 (fiducial limits),[13]; [18],15.3 µg/mL
same,LC50 (fiducial limits),[13]; in vivo,24.1 µg/mL
same,LT50 (fiducial limits),M. domestica (housefly),1.04 h
same,LT50 (fiducial limits),[2],1.69 h
same,KC50 (fiducial limits),[14]; 20 Minutes,>502 µg/mL
same,KC50 (fiducial limits),[14]; 30 Minutes,>243 µg/mL
same,activity against flower Thrips in preliminary screening,[3],exhibit insecticidal activity
same,LT50 (fiducial limits),[4],8.23 h
same,LT50 (fiducial limits),[5],0.60 h
ClC(Cl)Cl [Chloroform],LT50 (fiducial limits) against A. japonicus,[1],>48^a hour
same,LT50 (fiducial limits),M. domestica (housefly),>48^a ^ hour
same,LT50 (fiducial limits),[2],>48^a ^ hour
same,mortality,[3],No mortality
same,LT50 (fiducial limits),[4],>48^a ^ hour
same,LT50 (fiducial limits),[5],>48^a ^ hour
Cc1ccc(C(C)C)cc1O [Carvacrol],LT50 (fiducial limits) against A. japonicus,[1],3.32 (2.05-7220) hour
same,KC50 (fiducial limits),Aedes aegypti (mosquito); 10 Minutes,>243 µg/mL
same,KC50 (fiducial limits),Aedes aegypti (mosquito); 20 Minutes,6.0 µg/mL
same,KC50 (fiducial limits),Aedes aegypti (mosquito); 30 Minutes,>243 µg/mL
same,LC50 (fiducial limits) against T. chilonis,[7],826 µg/mL
same,LC90 (fiducial limits) against T. chilonis,[7],7.08 µg/mL
same,LC50 (fiducial limits),[8],>19.2 µg/mL
same,LC90 (fiducial limits),[8],>19.2 µg/mL
same,LC50 (fiducial limits),[9]; melon fly,>243 µg/mL
same,LC90 (fiducial limits),[9]; melon fly,>243 µg/mL
same,LC50 (fiducial limits),"[10]; spider mites, exposed one hour",37.5 µg/mL
same,LC90 (fiducial limits),"[10]; spider mites, exposed one hour",510 µg/mL
same,LC50 (fiducial limits),[11]; [16],>243 µg/mL
same,LC90 (fiducial limits),[11]; [16],>243 µg/mL
same,LC50 (fiducial limits),[12]; [17],0.77 µg/mL
same,LC90 (fiducial limits),[12]; [17],3.92 µg/mL
same,LC50 (fiducial limits),[13]; [18],84.5 µg/mL
same,LC90 (fiducial limits),[13]; [18],118 µg/mL
same,LT50 (fiducial limits),M. domestica (housefly),2.30 h
same,LT50 (fiducial limits),[2],2.49 h
same,KC50 (fiducial limits),[14]; 10 Minutes,>7600 µg/mL
same,KC50 (fiducial limits),[14]; 20 Minutes,>243 µg/mL
same,KC50 (fiducial limits),[14]; 30 Minutes,>243 µg/mL
same,time within which the insects responded,[14],≤ 10 min
same,activity against flower Thrips in preliminary screening,[3],exhibit insecticidal activity
same,LT50 (fiducial limits),[4],9.95 h
same,Vp (Pa)/T (° C.),[6]; T 25 °C,3.99/25 Pa
same,LT50 (fiducial limits),[5],1.94 h
C/C=C/c1ccc(OC)cc1 [trans-Anethole],LT50 (fiducial limits) against A. japonicus,[1],0.933 (0.73-1.11) hour
same,KC50 (fiducial limits),Aedes aegypti (mosquito); 10 Minutes,>8.1 µg/mL
same,KC50 (fiducial limits),Aedes aegypti (mosquito); 20 Minutes,4.84 µg/mL
same,KC50 (fiducial limits),Aedes aegypti (mosquito); 30 Minutes,4.05 µg/mL
same,LT50 (fiducial limits),M. domestica (housefly),2.01 h
same,LT50 (fiducial limits),[2],2.28 h
same,KC50 (fiducial limits),[14]; 30 Minutes,>243 µg/mL
same,time within which the insects responded,[14],≤ 30 min
same,activity against flower Thrips in preliminary screening,[3],exhibit insecticidal activity
same,LT50 (fiducial limits),[4],7.97 h
same,LT50 (fiducial limits),[5],1.07 h
C=C[C@](C)(O)CCC=C(C)C [(−)-Linalool],Vp (Pa)/T (° C.),[6]; T 23.5 °C,21.20/23.5 Pa
Spinetoram,Control Efficacy,flower Thrips; 1 DAT,70%
same,Control Efficacy,flower Thrips; 3 DAT,94%
same,Control Efficacy,flower Thrips; 5 DAT,37%
same,Control Efficacy,flower Thrips; 7 DAT,33%
same,Control Efficacy,flower Thrips; 14 DAT,62%
same,Control Efficacy,flower Thrips; 21 DAT,0%
same,Control Efficacy,[15]; 1 DAT,68%
same,Control Efficacy,[15]; 3 DAT,87%
same,Control Efficacy,[15]; 5 DAT,36%
same,Control Efficacy,[15]; 7 DAT,49%
same,Control Efficacy,[15]; 14 DAT,66%
same,Control Efficacy,[15]; 21 DAT,25%
